Laboratory results as given in patent US5304687A, “Morpholinyl derivatives of doxorubicin and process for their preparation” (priority 1989, dated 1994).
≈ marks a conversion by molar mass, not a printed value. Read-outs that look alike come from different tables or passages of the source.

Experiments:
LoVo = assay: Colony assay test against LoVo cells in vitro (treatment for 4 hrs); format: cell-based; settings: Homo sapiens, read-out: IC50 (concentration inhibiting 50% of colony growth), LoVo
From the text: The compounds have been tested in several experimental system in order to ascertain their cytotoxicity and antitumor activity in experimental animals in comparison with parent Doxorubicin. The new anthracyclines result more cytotoxic than the parent drug on LoVo and LoVo Doxorubicin-resistant cell line (LoVo/Dx), Table 1, and are active "in vivo" against doxorubicin-resistant cell lines.
(§1) Colony assay test against LoVo and LoVo/Dx resistant cells
(§2) "in vitro" (treatment for 4 hrs)
(§3) ^a IC50 = concentration inhibiting 50% of colony growth

LoVo/Dx resistant cells = assay: cells; format: cell-based; settings: for IC50: read-out: IC50 (concentration inhibiting 50% of colony growth), LoVo/Dx; for R.I. = Resistance Index = (IC50 LoVo/Dx)/(IC50 LoVo): LoVo/Dx vs LoVo
From the text: as §1, §2, §3
^b R.I. = Resistance Index = (IC50 LoVo/Dx)/(IC50 LoVo)

in vivo [1] = settings: mouse, in vivo, iv
Procedure: (§4) The primary screening "in vivo" was carried out in BDF1 mice bearing P388 Doxorubicin-resistant Johnson's leukemia (P388/Dx) (10^2 cell/mouse). The drugs were administered iv on day 1 after tumor inoculation.
(§5) ^c O.D. = Optimal Dose: maximally tollerated dose.
(§6) ^d T/C % = Median survival time of treated mice over median survival
(§7) time of controls × 100.

[2] = test system: Doxorubicin-resistant P388 Johnson's Leukemia (P388/Dx); assay: in vivo; settings: BDF1 mice bearing P388/Dx Johnson (10^2 cell/mouse), iv on day 1, at O.D.
Procedure: as §4, §5, §6, §7

P388 Leukemia (Schabel) = assay: Effect on sensitive P388 leukemia (Schabel) in vitro (treatment 1 hr); format: cell-based; settings: Mus musculus, read-out: IC50 (concentration inhibiting 50% of cellular survival), P388
From the text: (§8) Effect of A4 on sensitive and Doxorubicin-resistant P388
(§9) Leukemia (Schabel) "in vitro" (treatment 1 hr).
(§10) ^c IC50 = concentration inhibiting 50% of cellular survival.

[3] = test system: Doxorubicin-resistant P388 Leukemia (Schabel) (P388/Dx); assay: Effect on Doxorubicin-resistant P388 leukemia (Schabel) in vitro (treatment 1 hr); format: cell-based; settings: read-out: IC50 (concentration inhibiting 50% of cellular survival), P388/Dx
From the text: as §8, §9, §10

in vivo [4] = settings: mouse, in vivo, iv; remark: listed apart in the source
From the text: as §5, §6, §7

[5] = test system: Doxorubicin-resistant P38B Schabel's Leukemia; assay: in vivo; settings: BDF1 mice, P388/Dx Schabel (10^2 cell/mouse), iv on day 1, at O.D.
From the text: as §5, §6, §7

[6] = Effect on murine mammary carcinoma, iv and oral route; format: in vivo; settings: mouse, in vivo, read-out: O.D. = Optimal Dose: maximally tollerated dose
From the text: as §5
(§11) Effect of A4 on murine mammary carcinoma.
(§12) ^f iv q4dx4 = treatment iv every four days for four times
(§13) ^g po q4dx4 = oral treatment every four days for four times

murine mammary carcinoma = assay: as above; format: in vivo; settings: for Tumor Inhibition %: at O.D.
From the text: as §5, §11, §12, §13

[7] = Effect on mammary human carcinoma (MX1), iv and oral route; format: in vivo; settings: in vivo, read-out: O.D. = Optimal Dose: maximally tollerated dose
From the text: as §5
(§14) Effect of A4 on mammary human carcinoma (MX1).
(§15) ^h iv q7dx3 = treatment iv every seven days for three times
(§16) ^i po q7dx3 = oral treatment every seven days for three times

[8] = test system: mammary human carcinoma (MX1); assay: as above; format: in vivo; settings: at O.D.
From the text: as §5, §14, §15, §16

[9] = iv q4dx4 (iv every four days for four times)
[10] = po q4dx4 (oral every four days for four times)
[11] = iv q7dx3 (iv every seven days for three times)
[12] = po q7dx3 (oral every seven days for three times)

| Structure (SMILES) | IC50 (LoVo; 4 h) | IC50 (LoVo/Dx resistant cells; LoVo/DX, 4 h) | R.I. = Resistance Index = (IC50 LoVo/Dx)/(IC50 LoVo) (LoVo/Dx resistant cells; treatment for 4 hrs) | MTD (in vivo [1]) | T/C % = median survival time of treated mice over median survival time of controls × 100 [2] | T/C % = median survival time of treated mice over median survival time of controls × 100 [5] | Tumor Inhibition % (murine mammary carcinoma; [9]) | MTD [7, 11] | Tumor Inhibition % [8, 11] | also measured |
| --- | --- | --- | --- | --- | --- | --- | --- | --- | --- | --- |
| COc1cccc2c1C(=O)c1c(O)c3c(c(O)c1C2=O)C[C@@](O)(C(=O)CO)C[C@@H]3O[C@H]1C[C@H](N2CCO[C@H](OC)C2)[C@H](O)[C@H](C)O1 [Compound A4, 3'-deamino-3'-(2"(S)-methoxy-4"-morpholinyl)-doxorubicin] | 0.0087 µg/mL (≈ 0.0135 µM) | 0.0317 µg/mL (≈ 0.0493 µM) | 3.6 | 0.09 mg/kg | 250% | 153% | 94% | 0.05 mg/kg | 98% | IC50 (P388 Leukemia (Schabel); P388, 1 h): 0.0076 µg/mL (≈ 0.0118 µM); IC50 ([3]; P388/DX, 1 h): 0.0243 µg/mL (≈ 0.0378 µM); MTD (in vivo [4]): 0.09 mg/kg; MTD [6, 9]: 0.065 mg/kg; MTD [6, 10]: 0.1 mg/kg; Tumor Inhibition % (murine mammary carcinoma; [10]): 97%; MTD [7, 12]: 0.13 mg/kg; Tumor Inhibition % [8, 12]: 99% |
| COc1cccc2c1C(=O)c1c(O)c3c(c(O)c1C2=O)C[C@@](O)(C(=O)CO)C[C@@H]3O[C@H]1C[C@H](N2CCO[C@@H](OC)C2)[C@H](O)[C@H](C)O1 [Compound A5, 3'-deamino-3'-(2"(R)-methoxy-4"-morpholinyl)-doxorubicin] | 0.0065 µg/mL (≈ 0.0101 µM) | 0.0401 µg/mL (≈ 0.0623 µM) | 6.1 | 0.13 mg/kg | 244% |  |  |  |  |  |
| COc1cccc2c1C(=O)c1c(O)c3c(c(O)c1C2=O)C[C@@](O)(C(=O)CO)C[C@@H]3O[C@H]1C[C@H](N)[C@H](O)[C@H](C)O1 [Doxorubicin, doxorubicin] |  |  | 52.6 |  | 86% | 100% | 99% | 6 mg/kg | 72% | IC50 (LoVo; in vitro, treatment for 4 hrs): 0.0488 µg/mL (≈ 0.0898 µM); IC50 (LoVo/Dx resistant cells; LoVo/Dx, in vitro, treatment for 4 hrs): 2.55 µg/mL (≈ 4.7 µM); IC50 (P388 Leukemia (Schabel); sensitive P388 (Schabel), in vitro, treatment 1 hr): 0.0527 µg/mL (≈ 0.097 µM); IC50 ([3]; P388/Dx (Schabel), in vitro, treatment 1 hr): 4 µg/mL (≈ 7.36 µM); O.D. = Optimal Dose: maximally tollerated dose (murine mammary carcinoma; [9]): 5.85 mg/kg |
